{
  "source": "paper PMC12529881",
  "about": "“Quantitative analysis of inhibitor‐induced assembly disruption in human UDP‐GlcNAc 2‐epimerase using mass photometry” (Protein Science : A Publication of the Protein Society, 2025)",
  "molecules": {"B1": {"name": "GNE (UDP-GlcNAc 2-epimerase), monomer UDP-GlcNAc 2-epimerase domain (protein)", "chain": "MEKNGNNRKLRVCVATCNRADYSKLAPIMFGIKTEPEFFELDVVVLGSHLIDDYGNTYRMIEQDDFDINTRLHTIVRGEDEAAMVESVGLALVKLPDVLNRLKPDIMIVHGDRFDALALATSAALMNIRILHIEGGEVSGTIDDSIRHAITKLAHYHVCCTRSAEQHLISMCEDHDRILLAGCPSYDKLLSAKNKDYMSIIRMWLGDDVKSKDYIVALQHPVTTDIKHSIKMFELTLDALISFNKRTLVLFPNIDAGSKEMVRVMRKKGIEHHPNFRAVKHVPFDQFIQLVAHAGCMIGNSSCGVREVGAFGTPVINLGTRQIGRETGENVLHVRDADTQDKILQALHLQFGKQYPCSKIYGDGNAVPRILKFLKSIDLQEPLQKKFCFPPVKENISQDIDHILE"}, "B2": {"name": "GNE (UDP-GlcNAc 2-epimerase), dimer UDP-GlcNAc 2-epimerase domain (protein)", "chain": "B1 chain"}},
  "key": {"[1]": {"target": "T1, human UDP‐GlcNAc 2‐epimerase (GNE) (Homo sapiens, UniProt Q9Y223)", "T1 construct": "The MNK subunit connects to the C‐terminus of the GNE subunit; made in house; host or cells: Escherichia coli BL21 (DE3)", "T1 sequence (Q9Y223 1-405 limits assumed)": "B1 chain", "assay": "Mass photometry GNE assembly inhibition (inhibitor titration against 800 nM GNE)", "type": "biochemical", "details": "for IC50 / effect on dimeric assembly: 800 nM GNE; for effect on dimeric assembly: absence of UDP‐GlcNAc; for Ki: from IC50 ^S (T) by modified Cheng–Prusoff equation (Equation S4), read-out: K i ^S (T)", "protocol": "All MP measurements were conducted using a OneMP (Refeyn) instrument equipped with a 525 nm green laser. To minimize background noise, the instrument was placed on an active vibration isolation system (Accurion i4 Series, Park Systems). High‐precision glass coverslips (Paul Marienfeld GmbH & Co. KG, Cat# 0107222) were thoroughly cleaned before use to ensure optimal measurement conditions. Prior to MP measurements, samples were incubated in phosphate buffer (DPBS[−|−], Gibco, Cat# 14190144) and low‐binding tubes for 30 min in a ThermoMixer C (Eppendorf, Cat# 5382000015) at 20°C to allow binding equilibrium to be reached. Immediately before measurement, a 50 nM working solution was prepared. Then, 5 μL of the working solution was added to a 15 μL DPBS (−|−) droplet on the glass coverslip, followed by mixing upon pipetting to ensure proper distribution before measurements began immediately. […] For the measurements, a regular field of view was used. Data acquisition was performed over a 60‐s detection period with manual focus adjustment. Data were recorded using the software AquireMP (2024 R2, Refeyn) and referenced against a glycinin mass standard in DPBS (−|−). The glycinin standard, derived from defatted soybean flour, forms characteristic trimers (160 kDa), hexamers (320 kDa), nonamers (480 kDa), and dodecamers (640 kDa). Purified and lyophilized glycinin was kindly provided by the group of Dr. Rumiana Dimova (Chen et al., [2020]; Mangiarotti et al., [2025]). Data analysis and graphical visualization were performed using DiscoverMP (2024 R2, Refeyn) and GraphPad Prism 10 (10.1.1, Dotmatics). All experiments were conducted in at least three independent replicates, each performed as technical triplicates.\nTwofold serial dilutions of the inhibitors (500–7.81 μM) were titrated against a constant GNE concentration (800 nM), either in the presence or absence of UDP‐GlcNAc (100 μM). The GNE and substrate concentrations were selected based on titration experiments ensuring binding saturation and the establishment of an assembly equilibrium. Prior to measurements, samples were incubated for 30 min at 20°C to allow equilibrium to be reached. IC50 values were determined from protein fraction vs. inhibitor concentration plots and fitted using a Hill‐based logistic function (Equation S3). Subsequently, K i values for GNE inhibitors were derived from a Cheng–Prusoff equation accounting for allostery (Equation S4), detailed in Supporting Information S1."}, "[2]": {"target": "T1, human UDP‐GlcNAc 2‐epimerase (GNE)", "assay": "Mass photometry Schild experiments and OMAM global fit (GNE tetramer inhibition by C15)", "type": "binding", "protocol": "(§1) All MP measurements were conducted using a OneMP (Refeyn) instrument equipped with a 525 nm green laser. To minimize background noise, the instrument was placed on an active vibration isolation system (Accurion i4 Series, Park Systems). High‐precision glass coverslips (Paul Marienfeld GmbH & Co. KG, Cat# 0107222) were thoroughly cleaned before use to ensure optimal measurement conditions. Prior to MP measurements, samples were incubated in phosphate buffer (DPBS[−|−], Gibco, Cat# 14190144) and low‐binding tubes for 30 min in a ThermoMixer C (Eppendorf, Cat# 5382000015) at 20°C to allow binding equilibrium to be reached. Immediately before measurement, a 50 nM working solution was prepared. Then, 5 μL of the working solution was added to a 15 μL DPBS (−|−) droplet on the glass coverslip, followed by mixing upon pipetting to ensure proper distribution before measurements began immediately. This approach provided high reproducibility in our results. For the measurements, a regular field of view was used. Data acquisition was performed over a 60‐s detection period with manual focus adjustment. Data were recorded using the software AquireMP (2024 R2, Refeyn) and referenced against a glycinin mass standard in DPBS (−|−). The glycinin standard, derived from defatted soybean flour, forms characteristic trimers (160 kDa), hexamers (320 kDa), nonamers (480 kDa), and dodecamers (640 kDa). Purified and lyophilized glycinin was kindly provided by the group of Dr. Rumiana Dimova (Chen et al., [2020]; Mangiarotti et al., [2025]). Data analysis and graphical visualization were performed using DiscoverMP (2024 R2, Refeyn) and GraphPad Prism 10 (10.1.1, Dotmatics). All experiments were conducted in at least three independent replicates, each performed as technical triplicates.\nTo assess the binding affinity of inhibitors to GNE, modified Schild experiments were performed using MP. Serial dilutions of UDP‐GlcNAc (800 μM to 100 nM) were titrated against a constant GNE concentration (800 nM) in the presence of varying concentrations of inhibitor C15 (200 μM to 2 nM). Enzyme and substrate concentrations were chosen based on prior titration experiments (Figure 2c,g) to ensure a stable oligomeric equilibrium. Inhibitor concentrations were selected around the IC50 to enable accurate response characterization. Samples were incubated for 30 min at 20°C to ensure equilibration before measurement. EC50 values were obtained from substrate titration curves (tetramer fraction vs. UDP‐GlcNAc concentration), fitted using a Hill‐based function (Equation S3). The resulting EC50 values in the presence of inhibitor (EC50,Inh) were converted into logarithmic concentration ratios (log(CR‐1)) and plotted against the corresponding logarithmic inhibitor concentrations to generate a Schild plot. Data points were then fitted using a linear Schild equation (Equation S5), as described in the Supporting Information S1. Further cooperative factors were obtained from fitting the substrate concentration‐dependent response curves globally with an OMAM model (Equation S6) (Jakubík et al., [2020])."}, "[3]": {"target": "T1, human UDP‐GlcNAc 2‐epimerase (GNE)", "assay": "Mass photometry affinity measurements of GNE subunits / substrate titration", "type": "binding", "protocol": "as §1\nTo determine the intermolecular protein affinities of GNE subunits, their assembly distribution was assessed using MP experiments. In the absence of substrate, serial GNE dilutions (50 μM to 50 nM) were performed to evaluate GNE subunit interactions. In the presence of UDP‐GlcNAc, intermolecular affinity changes were assessed through two titration approaches: First, different concentrations of UDP‐GlcNAc (500–7.81 μM) were titrated against a fixed concentration of GNE (0.8 μM). Second, different concentrations of GNE (0.2–10 μM) were titrated against a fixed concentration of UDP‐GlcNAc (100 μM). KD values were obtained from binding curves (Figure S4), fitted using a Hill‐based logistic model (Equation S1) (Fineberg et al., [2020]). The following dissociation constants were determined: K D ^0 (M:M) and K D ^0 (D:D) in the absence of UDP‐GlcNAc, K D ^S (D:D) and K D ^S (M:M) in the presence of UDP‐GlcNAc."}, "GNE": {"tested_on": "GNE", "design": "method as in Chen et al., 2016", "details": "ref Chen et al., 2016; cited from earlier work"}, "mass photometry [4]": {"target": "the molecule itself", "assay": "mass photometry"}, "mass photometry [5]": {"target": "the molecule itself", "assay": "mass photometry", "remark": "listed apart in the source"}, "[6]": {"details": "100 μM UDP‐GlcNAc, DPBS pH 7.4, 20°C, Hill n fixed 1.3, read-out: IC50 ^S (T), GNE tetramer destabilization"}, "[7]": {"details": "absence of UDP-GlcNAc, read-out: IC50^0(D), GNE dimer inhibition"}, "[8]": {"details": "presence of 100 µM UDP-GlcNAc, read-out: IC50^S(D), GNE dimer inhibition"}, "[9]": {"details": "substrate titration against 800 nM GNE"}},
  "note": "Where two headings read alike, the source gives them in different places.",
  "data": [
    {"molecule": "O=c1nc(/C=C/c2cc([N+](=O)[O-])ccc2Cl)cc(C(F)(F)F)[nH]1", "note": "[C13, (E)‐4‐(2‐chloro‐5‐nitrostyryl)‐6‐(trifluoromethyl)pyrimidin‐2(1H)‐one]", "values": [
      {"measurement": "IC50", "setting": "[1]; [6]", "value": "19.4 ± 4.2", "unit": "µM"},
      {"measurement": "IC50", "setting": "[1]; [7]", "value": "> 1000", "unit": "µM"},
      {"measurement": "IC50", "setting": "[1]; [8]", "value": "472 ± 42.5", "unit": "µM"},
      {"measurement": "effect on dimeric assembly", "setting": "[1]", "value": "significantly disrupted the dimeric assembly"},
      {"measurement": "Ki", "setting": "[1]; 100 μM UDP‐GlcNAc", "value": "0.508 ± 0.182", "unit": "µM"}
    ]},
    {"molecule": "COc1c(Br)cc(Br)cc1/C=C/c1cc(C(F)(F)F)[nH]c(=O)n1", "note": "[C15, (E)‐4‐(3,5‐dibromo‐2‐methoxystyryl)‐6‐(trifluoromethyl)pyrimidin‐2(1H)‐one]", "values": [
      {"measurement": "K B (OMAM) fold lower than K B,app (Schild)", "setting": "[2]", "value": "~ 28 fold"},
      {"measurement": "operational cooperativity factor β", "setting": "[2]; OMAM fit", "value": "≈ 0"},
      {"measurement": "operational efficacy τ I (inhibitor)", "setting": "[2]; OMAM fit", "value": 0.02},
      {"measurement": "binding cooperativity factor ɑ", "setting": "[2]; OMAM fit, between C15 and substrate binding", "value": 0.02},
      {"measurement": "Kd", "setting": "[2]; OMAM global fit (Equation S6), read-out: inhibitor affinity K B", "value": 0.0252, "unit": "µM"},
      {"measurement": "Schild slope m", "setting": "[2]; linear region 0.8–10 μM C15, Equation S5", "value": 1.1},
      {"measurement": "Kd", "setting": "[2]; x‐intercept of linear Schild fit (linear region 0.8–10 μM C15), 800 nM GNE, read-out: apparent affinity K B,app", "value": "~0.7", "unit": "µM"},
      {"measurement": "IC50", "setting": "[1]; [6]", "value": "3.1 ± 1.2", "unit": "µM"},
      {"measurement": "IC50", "setting": "[1]; [7]", "value": "21 ± 2.6", "unit": "µM"},
      {"measurement": "IC50", "setting": "[1]; [8]", "value": "173 ± 100", "unit": "µM"},
      {"measurement": "tetramer inhibition at single concentration", "setting": "[1]; 31.25 μM C15, 800 nM GNE, 100 μM UDP‐GlcNAc", "value": "full tetramer inhibition"},
      {"measurement": "effect on dimeric assembly", "setting": "[1]", "value": "significantly disrupted the dimeric assembly"},
      {"measurement": "Ki", "setting": "[1]; 100 μM UDP‐GlcNAc", "value": "0.0826 ± 0.0397", "unit": "µM"}
    ]},
    {"molecule": "CC(=O)N[C@H]1[C@@H](OP(=O)([O-])OP(=O)([O-])OC[C@H]2O[C@@H](n3ccc(=O)[nH]c3=O)[C@H](O)[C@@H]2O)O[C@H](CO)[C@@H](O)[C@@H]1O.[Na+].[Na+]", "note": "[UDP‐GlcNAc, Uridine diphosphate N‐acetyglucosamine disodium salt]", "values": [
      {"measurement": "operational efficacy τ S (substrate)", "setting": "[2]; OMAM fit", "value": 17.6},
      {"measurement": "increase of dimer–dimer affinity by substrate binding", "setting": "[3]", "value": 98, "unit": "fold"},
      {"measurement": "Kd", "setting": "[3]; from tetramer curve, substrate titration against 800 nM GNE, Equation S2, read-out: substrate affinity K S", "value": "34.6 ± 3", "unit": "µM"},
      {"measurement": "Kd", "setting": "[3]; presence of 100 μM UDP‐GlcNAc, fit Equation S1, read-out: K D ^S (D:D), GNE dimer–dimer interaction", "value": "0.0981 ± 0.0091", "unit": "µM"},
      {"measurement": "Kd", "setting": "[3]; presence of 100 μM UDP‐GlcNAc, fit Equation S1, read-out: K D ^S (M:M), GNE monomer–monomer interaction", "value": "0.0372 ± 0.0075", "unit": "µM"},
      {"measurement": "Kd", "setting": "[3]; presence of 100 μM UDP‐GlcNAc, mean calculated by law of mass action, read-out: K D ^S Calc.(D:D)", "value": "0.221 ± 0.0272", "unit": "µM"},
      {"measurement": "Kd", "setting": "[3]; presence of 100 μM UDP‐GlcNAc, mean calculated by law of mass action, read-out: K D ^S Calc.(M:M)", "value": "0.0653 ± 0.0124", "unit": "µM"},
      {"measurement": "Hill coefficient n of tetramer fraction", "setting": "[3]; [9]", "value": 1.3},
      {"measurement": "maximal response E max (maximal tetramer fraction)", "setting": "[3]; [9]", "value": 68.3, "unit": "%"},
      {"measurement": "K M of GNE", "setting": "GNE", "value": "33.1 ± 4.2", "unit": "µM"}
    ]},
    {"molecule": "B1", "values": [
      {"measurement": "Kd", "setting": "mass photometry [4]", "value": 0.0126, "unit": "µM"}
    ]},
    {"molecule": "B2", "values": [
      {"measurement": "Kd", "setting": "mass photometry [5]", "value": 9.6, "unit": "µM"}
    ]}
  ]
}
